pIC50: −log10 of the molar value. Like-named read-outs stand apart in the source and are kept apart here. Marks after values point to notes of the source that are not given here.
Key:
[1] = tested on: hexobarbital sleep time; assay: hexobarbital sleep time test; format: in vivo; conditions: rats
Description: All rats subjected to the 5-day tolerance studies were maintained in their home cage for 24 hours and then subjected to the hexobarbital sleep time test (day 6). Each rat in each of the 3 groups was given 100 mg/kg of hexobarbital (i.p.) and the sleep time measured to the nearest minute. The mean sleep time and S.E. for each group were calculated.

[2] = target: p-nitroanisole O-demethylase; assay: in vitro p-nitroanisole O-demethylase inhibition; format: biochemical; conditions: listed as Compound A, read-out: I50, in vitro p-nitroanisole O-demethylase activity
Excerpt: This interpretation is supported by the similar effectiveness of Compound A by the MES test, the increased hexobarbital sleep time, and the unaltered liver microsomal enzyme activity. In view of the increased hexobarbital sleep time in the 5-day treated animals, it was thought important to determine the in vitro effect of Compound A on p-nitroanisole O-demethylase activity. […] This may indicate that the potentiation of hexobarbital sleep time is central and not peripheral.

[3] = tested on: Crl:CD BR Charles River rats
Description: II. Five groups of Crl:CD® BR Charles River rats were each exposed to BAMP or a control substance (0.5% methylcellulose [400 Cps] aqueous solution in distilled water) according to the following dosage schedule:
Group 1—vehicle control (10 males, 10 females), 0 mg/kg/day
Group 2—low (10 males, 10 females), 10 mg/kg/day
Group 3—mid low (10 males, 10 females), 30 mg/kg/day
Group 4—mid high (10 males, 10 females), 100 mg/kg/day
Group 5—high (10 males, 10 females), 300 mg/kg/day
Exposure was by oral gavage, once daily, for a period of at least 30 consecutive days, after which all animals were sacrificed for pathologic evaluation.
All animals were weighed once prior to initiation of dosing and weekly thereafter. Food-fasted (overnight) blood samples for clinical chemistry and hematology were collected at termination. Blood samples were collected from the orbital venous plexus using carbon dioxide (mixed with oxygen) as an anesthetic.
All animals were sacrificed, at the appropriate time, by exsanguination, under barbiturate anesthesia, and all were subjected to a necropsy examination.
Clinical observations were reviewed at necropsy, and all grossly observed abnormalities were entered directly into the computerized data collection system. Adrenals, brain with brainstem, heart, kidneys, liver, ovaries, pituitary, testes with epididymides, and thyroid with parathyroids were weighted from each animal. The pituitary and thyroid with parathyroids were weighed after fixation and all of the other organs were weighed at the time of necropsy.
As required by the protocol, histologic evaluations were conducted on liver only from all animals of Groups 1 (control) and 5 (high). All histologic findings were entered directly into the computerized data capture system. Lesions were graded as to relative severity or degree of involvement (1=minimal, 2=slight, 3=moderate, 4=moderately severe, 5=severe). In general, minimal represents the least consistently recognizable degree of any given histoniorphologic alteration, while severe would represent the most extreme degree reasonably possible, with the other three grades occupying a continuum between the two extremes. The grades are subjective, comparative evaluations, based on morphology alone and are not intended by themselves to imply any degree of functional impairment.

[4] = female, group 2, 10 mg/kg/day, 30 days oral
[5] = female, group 3, 30 mg/kg/day, 30 days oral
[6] = female, group 4, 100 mg/kg/day × 30 days oral
[7] = female, group 4, 100 mg/kg/day, 30 days oral
[8] = female, group 5, 300 mg/kg/day × 30 days oral
[9] = female, group 5, 300 mg/kg/day, 30 days oral
[10] = male, group 2, 10 mg/kg/day, 30 days oral
[11] = male, group 3, 30 mg/kg/day, 30 days oral
[12] = male, group 4, 100 mg/kg/day × 30 days oral
[13] = male, group 4, 100 mg/kg/day, 30 days oral
[14] = male, group 5, 300 mg/kg/day × 30 days oral
[15] = male, group 5, 300 mg/kg/day, 30 days oral

Compound: CC(=O)NC(C)C(=O)NCc1ccccc1 (racemic) [compound 1, N-Acetyl-D,L-alanine-N′-benzylamide]
- hexobarbital sleep time ([1]; 5-day treated (48 mg/kg)): 44.4 ± 1.9 min
- hexobarbital sleep time ([1]; acute control (single dose 48 mg/kg)): 34.3 ± 1.1 min
- pIC50 [2]: 2.30

Compound: COC[C@@H](NC(C)=O)C(=O)NCc1ccccc1 [Ex. 1, 2, (R)-N-Benzyl-2-Acetamide-3-methoxypropionamide]
- ESOPHAGUS (ES) NOT REMARKABLE (number of animals) [3, 4]: 10
- HEART (HT) ENLARGED (number of animals affected) [3, 4]: 0
- HEART (HT) NOT REMARKABLE (number of animals) [3, 4]: 10
- LIVER (LI) ENLARGED (number of animals affected) [3, 4]: 0
- LIVER (LI) NOT REMARKABLE (number of animals) [3, 4]: 10
- LIVER ORGAN-TO-BODY WT, mean [3, 4]: 3.237%
- LUNG (LU) NOT REMARKABLE (number of animals) [3, 4]: 10
- PARATHYROID (PT) NOT REMARKABLE (number of animals) [3, 4]: 10
- SPLEEN (SP) NOT REMARKABLE (number of animals) [3, 4]: 10
- TERMINAL BODY WT, mean [3, 4]: 214.1 g
- TRACHEA (TR) NOT REMARKABLE (number of animals) [3, 4]: 10
- ESOPHAGUS (ES) NOT REMARKABLE (number of animals) [3, 5]: 10
- HEART (HT) ENLARGED (number of animals affected) [3, 5]: 0
- HEART (HT) NOT REMARKABLE (number of animals) [3, 5]: 10
- LIVER (LI) ENLARGED (number of animals affected) [3, 5]: 0
- LIVER (LI) NOT REMARKABLE (number of animals) [3, 5]: 10
- LIVER ORGAN-TO-BODY WT, mean [3, 5]: 3.244%
- LUNG (LU) NOT REMARKABLE (number of animals) [3, 5]: 10
- PARATHYROID (PT) NOT REMARKABLE (number of animals) [3, 5]: 10
- SPLEEN (SP) NOT REMARKABLE (number of animals) [3, 5]: 10
- TERMINAL BODY WT, mean [3, 5]: 207.0 g
- TRACHEA (TR) NOT REMARKABLE (number of animals) [3, 5]: 10
- LIVER ORGAN-TO-BODY WT, mean [3, 6]: 3.608%
- TERMINAL BODY WT, mean [3, 6]: 218.3 g
- ESOPHAGUS (ES) NOT REMARKABLE (number of animals) [3, 7]: 10
- HEART (HT) ENLARGED (number of animals affected) [3, 7]: 0
- HEART (HT) NOT REMARKABLE (number of animals) [3, 7]: 10
- LIVER (LI) ENLARGED (number of animals affected) [3, 7]: 0
- LIVER (LI) NOT REMARKABLE (number of animals) [3, 7]: 10
- LUNG (LU) NOT REMARKABLE (number of animals) [3, 7]: 10
- PARATHYROID (PT) NOT REMARKABLE (number of animals) [3, 7]: 10
- SPLEEN (SP) NOT REMARKABLE (number of animals) [3, 7]: 10
- TRACHEA (TR) NOT REMARKABLE (number of animals) [3, 7]: 10
- LIVER ORGAN-TO-BODY WT, mean [3, 8]: 3.832* %
- TERMINAL BODY WT, mean [3, 8]: 205.9 g
- ESOPHAGUS (ES) NOT REMARKABLE (number of animals) [3, 9]: 10
- HEART (HT) ENLARGED (number of animals affected) [3, 9]: 0
- HEART (HT) NOT REMARKABLE (number of animals) [3, 9]: 10
- LIVER (LI) ENLARGED (number of animals affected) [3, 9]: 0
- LIVER (LI) NOT REMARKABLE (number of animals) [3, 9]: 10
- LUNG (LU) NOT REMARKABLE (number of animals) [3, 9]: 10
- PARATHYROID (PT) NOT REMARKABLE (number of animals) [3, 9]: 10
- SPLEEN (SP) NOT REMARKABLE (number of animals) [3, 9]: 10
- TRACHEA (TR) NOT REMARKABLE (number of animals) [3, 9]: 10
- ESOPHAGUS (ES) NOT REMARKABLE (number of animals) [3, 10]: 10
- HEART (HT) ENLARGED (number of animals affected) [3, 10]: 0
- HEART (HT) NOT REMARKABLE (number of animals) [3, 10]: 10
- LIVER (LI) ENLARGED (number of animals affected) [3, 10]: 0
- LIVER (LI) NOT REMARKABLE (number of animals) [3, 10]: 10
- LIVER ORGAN-TO-BODY WT, mean [3, 10]: 3.248%
- LUNG (LU) NOT REMARKABLE (number of animals) [3, 10]: 10
- PARATHYROID (PT) NOT REMARKABLE (number of animals) [3, 10]: 10
- SPLEEN (SP) NOT REMARKABLE (number of animals) [3, 10]: 10
- TERMINAL BODY WT, mean [3, 10]: 342.0 g
- TRACHEA (TR) NOT REMARKABLE (number of animals) [3, 10]: 10
- ESOPHAGUS (ES) NOT REMARKABLE (number of animals) [3, 11]: 10
- HEART (HT) ENLARGED (number of animals affected) [3, 11]: 0
- HEART (HT) NOT REMARKABLE (number of animals) [3, 11]: 10
- LIVER (LI) ENLARGED (number of animals affected) [3, 11]: 0
- LIVER (LI) NOT REMARKABLE (number of animals) [3, 11]: 10
- LIVER ORGAN-TO-BODY WT, mean [3, 11]: 3.278%
- LUNG (LU) NOT REMARKABLE (number of animals) [3, 11]: 10
- PARATHYROID (PT) NOT REMARKABLE (number of animals) [3, 11]: 10
- SPLEEN (SP) NOT REMARKABLE (number of animals) [3, 11]: 10
- TERMINAL BODY WT, mean [3, 11]: 349.9 g
- TRACHEA (TR) NOT REMARKABLE (number of animals) [3, 11]: 10
- LIVER ORGAN-TO-BODY WT, mean [3, 12]: 3.351%
- TERMINAL BODY WT, mean [3, 12]: 351.5 g
- ESOPHAGUS (ES) NOT REMARKABLE (number of animals) [3, 13]: 10
- HEART (HT) ENLARGED (number of animals affected) [3, 13]: 0
- HEART (HT) NOT REMARKABLE (number of animals) [3, 13]: 10
- LIVER (LI) ENLARGED (number of animals affected) [3, 13]: 0
- LIVER (LI) NOT REMARKABLE (number of animals) [3, 13]: 10
- LUNG (LU) NOT REMARKABLE (number of animals) [3, 13]: 10
- PARATHYROID (PT) NOT REMARKABLE (number of animals) [3, 13]: 10
- SPLEEN (SP) NOT REMARKABLE (number of animals) [3, 13]: 10
- TRACHEA (TR) NOT REMARKABLE (number of animals) [3, 13]: 10
- LIVER ORGAN-TO-BODY WT, mean [3, 14]: 4.016* %
- TERMINAL BODY WT, mean [3, 14]: 358.8 g
- ESOPHAGUS (ES) NOT REMARKABLE (number of animals) [3, 15]: 10
- HEART (HT) ENLARGED (number of animals affected) [3, 15]: 0
- HEART (HT) NOT REMARKABLE (number of animals) [3, 15]: 10
- LIVER (LI) ENLARGED (number of animals affected) [3, 15]: 1
- LIVER (LI) NOT REMARKABLE (number of animals) [3, 15]: 9
- LUNG (LU) NOT REMARKABLE (number of animals) [3, 15]: 10
- PARATHYROID (PT) NOT REMARKABLE (number of animals) [3, 15]: 10
- SPLEEN (SP) NOT REMARKABLE (number of animals) [3, 15]: 10
- TRACHEA (TR) NOT REMARKABLE (number of animals) [3, 15]: 10
- multiple of anti-convulsant dose causing no adverse histologic effects ([3]; rats, 30 days chronic dosing): 76.9

— patent USRE38551E1, “Anticonvulsant enantiomeric amino acid derivatives” (priority 1996, dated 2004)
